From US20090221624A1, “4-AMINOQUINOLINE COMPOUNDS FOR TREATING VIRUS-RELATED CONDITIONS” (priority 2005, published 2009) come the findings set out here.

Data set [1] can be described thus: in vitro.
Data set [2] deals with YFV (YF-hRuPac cells). Nature of the data set: microbe, parasite or virus in culture. In kind it is cell-based, yellow fever virus. The following applies: for EC50: read-out: YFV EC50.
Data set [3] has as its system DNG (D2-hRuPac cells). Nature of the data set: DNG antiviral activity, D2-hRuPac cells, Renilla luciferase. Format: cell-based, Dengue fever virus. The following applies: Dengue virus, secondary screening.
For data set [4], the system named is HCV replicon (Clone A cells, Huh7, subgenomic hepatits C virus RNA). Nature of the data set: HCV Neo screening assay (HCV replicon, NPTII ELISA). Format: cell-based, hepatitis C virus.
Data set [5] concerns RSV minigenome. Nature of the data set: RSV minigenome-dependent β-galactosidase expression assay (RSV β-Gal). Format: cell-based, respiratory syncytial virus. The following applies: for EC50: Secondary Data, RSV, read-out: RSV EC50; for RSV TI: therapeutic index CC50/EC50, RSV.
Data set [6] concerns SINV (SR19-F-luc cells). As to the kind of experiment: SINV antiviral activity, SR19-F-luc cells, Firefly luciferase. In kind it is cell-based. To be noted: Sindbis virus; for EC50: secondary screening, SR19-F-luc cells.
The test system of data set [7] is EBOV minigenome. As to the kind of experiment: microbe, parasite or virus in culture. In kind it is cell-based, Ebola virus. To be noted: for EC50: read-out: EBOV EC50.
Data set [8] deals with WNV (WN-hRuPac cells). Nature of the data set: WNV antiviral activity, WN-hRuPac cells, Renilla luciferase. In kind it is cell-based, West Nile virus. The following applies: for EC50: Secondary Data, WNV, read-out: WNV EC50; for WNV TI: therapeutic index CC50/EC50, WNV.
For data set [9], the system named is viable cells (intracellular ATP).

Like-named read-outs stand apart in the source and are kept apart here. Bounds are passed on as bounds.

Broadly, the EC50 is the concentration needed to bring the measured effect to its halfway point. Turning to `COc1ccc2nc(C)cc(Nc3ccc(I)cc3)c2c1` [Compound 76], the CC50 worked out at 35.5 µM in data set [1] (DNG CC50); 35.5 µM in data set [1] (EBOV CC50); 21.5 µM in data set [1] (HCV CC50); 35.5 µM in [1] (RSV CC50); 35.5 µM in data set [1] (SINV CC50); 35.5 µM in data set [1] (WNV CC50). The CC50 in [1] (YFV CC50) came to 35.5 µM. The “YFV TI” value in data set [2] was found to be 3.98. Also, the inhibition at 25 µM turned out to be 93.1% in data set [2] (Yellow fever virus, 24 h, read-out: YFV Inh); 152% in data set [4] (Hepatitis C virus, Huh-7, primary screening, 25 μM final concentration, 24 hours, percent inhibition of viral replication, read-out: HCV Inh); 75.9% in data set [5] (human respiratory syncytial virus, primary screening, 25 μM final concentration, 24 hours, percent inhibition of viral replication, read-out: RSV Inh); 93.5% in data set [6] (primary screening, 25 μM final concentration, 24 hours, percent inhibition of viral replication, read-out: SINV Inh); 93.9% in [7] (Zaire ebolavirus, 24 h, read-out: EBOV Inh); 85.9% in data set [8] (West Nile virus, primary screening, 25 μM final concentration, 24 hours, percent inhibition of viral replication, read-out: WNV Inh). The EC50 in data set [2] (Yellow fever virus) is 8.92 µM; in [3], 13.5 µM; in data set [4] (Hepatitis C virus, Huh-7, Secondary Data, HCV), 11.3 µM; in data set [5] (human respiratory syncytial virus), 18.2 µM; in data set [6], 2.55 µM; in data set [7] (Zaire ebolavirus) it was 19.8 µM. Also, the EC50 in [8] (West Nile virus) turned out to be 50.4 µM. Also, the “HCV TI” value in data set [4] (therapeutic index CC50/EC50, HCV) came to 1.9. For the same compound, in data set [5], the “RSV TI” value is reported as 1.95. Besides, the “WNV TI” value in data set [8] is 0.7.

On to `COc1ccccc1Nc1cc(C)nc2c(C)c(C)cc(N)c12` [Compound 79], for which the CC50 is not below 75 µM in data set [1] (HCV CC50) and 51.2 µM in data set [9]. The “YFV TI” value in data set [2] is listed as 16.53. In addition, the EC50 in data set [2] (Yellow fever virus) amounted to 3.1 µM; in [3], 8.26 µM; in data set [5], 2.2 µM; in data set [6] it was 8.57 µM; in [7], 43.5 µM; in [8] (West Nile virus), 19 µM. In addition, in data set [5], the “RSV TI” value stood at 23.3. For the same compound, in data set [7], the “EBOV Inh” value came to 49.83%. Further, in data set [8], the “WNV TI” value was found to be 2.7.
